Data: publication PMC8537048, “Characterization of Fungal FAD-Dependent AA3_2 Glucose Oxidoreductases from Hitherto Unexplored Phylogenetic Clades” (Journal of Fungi, 2021)

Tests used:
TvGDHII = biological target: T1, TvGDHII (Trichoderma virens, UniProt G9N1C2); assay: spectrophotometric steady-state kinetics, reduction of […],4-benzoquinone ([…] nm); type: biochemical; settings: 0.5 mM 1,4-benzoquinone fixed, pH 6.5, 30 °C
T1 construct: gene TRIVIDRAFT_46709; monomer; ~65 kDa deglycosylated; non-covalent FAD
T1 sequence (G9N1C2 entry or part of it): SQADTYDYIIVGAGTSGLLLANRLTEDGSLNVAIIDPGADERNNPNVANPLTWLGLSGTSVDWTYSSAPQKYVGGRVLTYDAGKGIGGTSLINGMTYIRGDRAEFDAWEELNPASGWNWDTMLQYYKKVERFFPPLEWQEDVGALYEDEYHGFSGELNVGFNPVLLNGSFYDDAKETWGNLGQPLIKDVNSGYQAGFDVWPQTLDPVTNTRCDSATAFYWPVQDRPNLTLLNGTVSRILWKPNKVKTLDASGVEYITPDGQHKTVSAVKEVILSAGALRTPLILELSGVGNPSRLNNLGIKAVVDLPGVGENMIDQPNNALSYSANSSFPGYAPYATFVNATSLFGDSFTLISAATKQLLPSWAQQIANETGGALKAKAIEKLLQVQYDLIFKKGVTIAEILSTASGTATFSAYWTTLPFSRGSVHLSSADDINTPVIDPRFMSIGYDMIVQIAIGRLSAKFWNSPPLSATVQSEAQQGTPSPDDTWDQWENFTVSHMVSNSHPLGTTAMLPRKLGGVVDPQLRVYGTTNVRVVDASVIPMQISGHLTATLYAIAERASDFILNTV

RsGDHIII = biological target: T2, RsGDHIII (Rhizoctonia solani, UniProt A0A0B7G104); assay: as above; type: biochemical; settings: 0.5 mM 1,4-benzoquinone fixed, pH 6.5, 30 °C
T2 construct: gene RSOLAG1IB_10481; monomer; non-covalent FAD
T2 sequence (A0A0B7G104 20-601): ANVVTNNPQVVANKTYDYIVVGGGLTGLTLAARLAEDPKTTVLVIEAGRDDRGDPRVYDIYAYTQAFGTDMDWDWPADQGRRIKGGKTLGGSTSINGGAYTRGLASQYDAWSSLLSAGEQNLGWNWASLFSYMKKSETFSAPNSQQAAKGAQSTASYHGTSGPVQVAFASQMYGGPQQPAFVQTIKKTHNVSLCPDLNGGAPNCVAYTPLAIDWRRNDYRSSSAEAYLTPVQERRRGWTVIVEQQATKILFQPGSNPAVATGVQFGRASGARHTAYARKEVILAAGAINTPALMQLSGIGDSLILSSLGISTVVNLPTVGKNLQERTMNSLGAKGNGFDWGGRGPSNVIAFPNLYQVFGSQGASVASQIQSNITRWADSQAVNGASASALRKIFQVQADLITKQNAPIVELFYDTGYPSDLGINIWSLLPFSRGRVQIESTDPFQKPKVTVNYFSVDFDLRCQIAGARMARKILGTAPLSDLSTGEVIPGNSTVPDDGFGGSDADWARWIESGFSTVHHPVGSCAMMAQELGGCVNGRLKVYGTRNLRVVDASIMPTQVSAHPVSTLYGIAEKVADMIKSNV

[1] = biological target: Aureobasidium subglaciale glucose oxidase (AsGOxII) (Aureobasidium subglaciale); assay: SEC-MALS; HPLC-SEC-MALS of the purified, native glycosylated enzyme; Superdex 200 10/300 GL, PBS pH 7.4 with 200 mM NaCl, 0.75 mL/min, 25 °C; 80 μg of protein loaded per run; oligomeric state judged against the mass of the deglycosylated subunit by SDS-PAGE

## OC[C@H]1OC(O)[C@H](O)[C@@H](O)[C@H]1O (stereo partly drawn) [D-galactose]
TvGDHII
  apparent Km: 42.6 ± 2.4 mM

## OC[C@H]1O[C@H](O[C@H]2[C@H](O)[C@@H](O)C(O)O[C@@H]2CO)[C@H](O)[C@@H](O)[C@@H]1O (stereo partly drawn) [maltose]
RsGDHIII
  apparent Km: 159.6 ± 9.4 mM

## Aureobasidium subglaciale glucose oxidase (AsGOxII) (enzyme)
[1]
  stoichiometry N: 2
